Among the data in PMC10745768, “Stereoselective Synthesis and Antiproliferative Activity of Steviol-Based Diterpene 1,3-Aminoalcohol Regioisomers” (Molecules, 2023) are inhibition values, retold here.

The test system of one assay is SiHa cells. Description: MTT antiproliferative assay, SiHa. It counts as cell-based. The following applies: Homo sapiens, 72 h, read-out: Growth inhibition (%) ± SEM. How it is done:
(§1) The in vitro anticancer effects of the presented compounds were assessed using the standard MTT [3-(4,5-dimethylthiazol2-yl)-2,5-diphenyltetrazolium bromide] assay on the following human cancer cell lines: cervical (HeLa and SiHa), breast (MCF-7 and MDA-MB-231) and ovarian cancer (A2780). The selectivity of the tested compounds was determined on murine embryonal fibroblast cells (NIH/3T3). The utilised cell lines were purchased from the European Collection of Cell Cultures (Salisbury, UK). The cells were cultivated in Eagle’s minimal essential medium supplemented with 10% fetal bovine serum, 1% non-essential amino acids and 1% antibiotic-antimycotic complex (penicillin, streptomycin, amphotericin B) at 37 °C in a humidified atmosphere containing 5% CO2. All media and supplements were purchased from Lonza Group Ltd. (Basel, Switzerland). The cancer cells were seeded into 96-well plates (5000 cells/well) and incubated overnight, and the test compounds were applied in two different concentrations (10 µM and 30 µM) and incubated for another 72 h under cell-culturing conditions. […] After 72 h, 20 µL of the 5 mg/mL MTT solution was added to each well, and the plates were incubated for 4 h. The medium was removed, and the formazan crystals produced by the mitochondrial activity were dissolved in dimethyl sulfoxide (DMSO) via shaking at 37 °C for 30 min. The absorbances were measured at 545 nm using a microplate reader (SPECTROStar Nano, BMG Labtech, Offenburg, Germany). The reference agent was cisplatin, which is a widely used cytotoxic agent. The IC50 values were calculated using sigmoid curve fitting. Two independent experiments were performed with five parallel wells for each condition. Calculations were performed using the GraphPad Prism 9 software (GraphPad Software Inc., San Diego, CA, USA).

The next assay concerns A2780 cells. Description: MTT antiproliferative assay, A2780. It counts as cell-based. The following applies: Homo sapiens, 72 h, read-out: Growth inhibition (%) ± SEM; for inhibition at 10 µM: A2780, 10 μM; for inhibition at 30 µM: A2780, 30 μM. The protocol:
as §1

The test system of the next assay is MCF-7 cells. Description: MTT antiproliferative assay, MCF-7. In kind it is cell-based. Particulars: Homo sapiens, MCF7, 72 h, read-out: Growth inhibition (%) ± SEM; for inhibition at 10 µM: MCF-7, 10 μM; for inhibition at 30 µM: MCF-7, 30 μM. The protocol:
as §1

The next assay concerns MDA-MB-231 cells. In words: MTT antiproliferative assay, MDA-MB-231. It counts as cell-based. The following applies: Homo sapiens, 72 h, read-out: Growth inhibition (%) ± SEM; for inhibition at 10 µM: MDA-MB-231, 10 μM; for inhibition at 30 µM: MDA-MB-231, 30 μM. The protocol:
as §1

In the next assay the test system is HeLa cells. Description: MTT antiproliferative assay, HeLa. Particulars: Homo sapiens, 72 h, read-out: Growth inhibition (%) ± SEM. It counts as cell-based. The protocol:
as §1

For a further assay, the system named is NIH/3T3 fibroblast cells. Description: MTT assay on non-malignant fibroblasts (selectivity). Particulars: Mus musculus, NIH3T3, 72 h, read-out: Growth inhibition (%) ± SEM; for inhibition at 10 µM: NIH/3T3, 10 μM; for inhibition at 30 µM: NIH/3T3, 30 μM. It counts as cell-based, murine. How it is done: as §1

As to `COC(=O)[C@]1(C)CCC[C@@]2(C)[C@@H]3CC[C@@]4(CO)C[C@]3(CC[C@@H]21)C[C@H]4NCc1ccccc1` [Compound 8, (4R,4aS,6aR,8R,9R,11aR,11bS)-Methyl 8-(benzylamino)-9-(hydroxymethyl)-4,11b-dimethyltetradecahydro-6a,9-methanocyclohepta[a]naphthalene-4-carboxylate], the inhibition at 10 µM was below 20% in the assay with SiHa cells; 20.3 ± 2.05% in the assay with A2780 cells; 45.4 ± 1.94% with MCF-7 cells; below 20% in the assay with MDA-MB-231 cells; below 20% with HeLa cells; 25.7 ± 0.97% in the assay on NIH/3T3 fibroblast cells. Also, the inhibition at 30 µM in the assay on SiHa cells is 95.3 ± 1.23%; in the assay on A2780 cells, 98.25 ± 0.4%; with MCF-7 cells, 98.9 ± 0.18%; with MDA-MB-231 cells, 97.89 ± 0.66%; in the assay on HeLa cells, 97.49 ± 0.52%; with NIH/3T3 fibroblast cells it was 98.27 ± 0.37%.

Regarding `COC(=O)[C@]1(C)CCC[C@@]2(C)[C@@H]3CC[C@@]4(CO)C[C@]3(CC[C@@H]21)C[C@H]4NCc1ccc(F)cc1` [Compound 9, (4R,4aS,6aR,8R,9R,11aR,11bS)-Methyl 8-((4-fluorobenzyl)amino)-9-(hydroxymethyl)-4,11b-dimethyltetradecahydro-6a,9-methanocyclohepta[a]naphthalene-4-carboxylate], the inhibition at 10 µM with SiHa cells was below 20%; in the assay on A2780 cells, 73.6 ± 2.61%; with MCF-7 cells it was 79.8 ± 1.59%; with MDA-MB-231 cells, 58 ± 2.59%; in the assay with HeLa cells it was below 20%; with NIH/3T3 fibroblast cells, below 20%. The inhibition at 30 µM in the assay with SiHa cells came to 86 ± 2.92%; in the assay with A2780 cells, 99.01 ± 0.11%; with MCF-7 cells it was 98.07 ± 0.35%; with MDA-MB-231 cells, 93.42 ± 0.39%; in the assay with HeLa cells, 95.35 ± 0.58%; with NIH/3T3 fibroblast cells, 93.9 ± 1.94%.

`COC(=O)[C@]1(C)CCC[C@@]2(C)[C@@H]3CC[C@@]4(CO)C[C@]3(CC[C@@H]21)C[C@H]4NCc1ccc(OC)cc1` [Compound 10, (4R,4aS,6aR,8R,9R,11aR,11bS)-Methyl 9-(hydroxymethyl)-8-((4-methoxybenzyl)amino)-4,11b-dimethyltetradecahydro-6a,9-methanocyclohepta[a]naphthalene-4-carboxylate]: the inhibition at 10 µM was below 20% in the assay on SiHa cells; 39 ± 1.87% in the assay on A2780 cells; 86.5 ± 0.88% in the assay on MCF-7 cells; 78.7 ± 2.63% with MDA-MB-231 cells; 20.3 ± 2.93% in the assay on NIH/3T3 fibroblast cells. Besides, the inhibition at 30 µM in the assay with SiHa cells was 97.61 ± 0.9%; in the assay with A2780 cells, 98.38 ± 0.51%; with MCF-7 cells it was 100 ± 0.2%; in the assay on MDA-MB-231 cells it was 98.09 ± 0.59%; in the assay with HeLa cells it was 97.65 ± 0.64%; with NIH/3T3 fibroblast cells, 96.6 ± 1.1%.

With `COC(=O)[C@]1(C)CCC[C@@]2(C)[C@@H]3CC[C@@]4(CO)C[C@]3(CC[C@@H]21)C[C@H]4NCc1cccc2ccccc12` [Compound 15, (4R,4aS,6aR,8R,9R,11aR,11bS)-Methyl 9-(hydroxymethyl)-4,11b-dimethyl-8-((naphthalen-1-ylmethyl)amino)tetradecahydro-6a,9-methanocyclohepta[a]naphthalene-4-carboxylate], the inhibition at 10 µM with SiHa cells was below 20%; in the assay with A2780 cells it was 89.5 ± 1.76%; with MCF-7 cells, 54 ± 3.39%; with MDA-MB-231 cells it was 31.3 ± 1.89%; with HeLa cells, below 20%; in the assay with NIH/3T3 fibroblast cells, below 20%. The inhibition at 30 µM was 87.9 ± 1.33% in the assay on SiHa cells; 99.67 ± 0.49% with A2780 cells; 97.43 ± 0.59% in the assay with MCF-7 cells; 94.2 ± 0.98% with MDA-MB-231 cells; 94.9 ± 2.04% in the assay with HeLa cells; 96.5 ± 0.77% in the assay with NIH/3T3 fibroblast cells.
